Experimental data taken from article PMC6749364, “Pharmacokinetics and Tissue Distribution of Alnustone in Rats after Intravenous Administration by Liquid Chromatography-Mass Spectrometry” (Molecules, 2019).

Columns and labels:
[1] = Stability of alnustone in rat plasma and tissue homogenates (QC samples); assay type: in vitro ADME, rats; conditions: in % (unit assumed)
Protocol: The calibration standards were prepared by spiking a certain volume of blank plasma or blank tissue homogenates with appropriate amounts of working solutions to yield a final concentration range from 1 to 2000 ng/mL. The effective concentrations of alnustone were 1, 5, 10, 40, 160, 200, 800, 2000 ng/mL for the plasma samples and tissue homogenates samples (heart, liver, spleen, lung, kidney, brain, stomach, intestine). […]
The stability tests involved the following four conditions. The short-term stability study was examined by analyzing samples at room temperature for 4 h. The long-term stability study was performed by analyzing samples stored at −75 °C for 1 month. For the freeze-thaw stability study, the samples were analyzed after three freeze/thaw cycles (−75 °C to 25 °C). The post-preparative storage stability was assessed by analyzing the samples left in autosampler vials at 4 °C for 24 h. The stability analysis was performed using three aliquots of each QC samples at three different concentrations. The samples were considered stable if the assay values were within the acceptable limits of accuracy (±15% RE) and precision (≤15% RSD).

neuraminidase = test system: neuraminidase; parameters: method as in PMID 20014777; conditions: cited from earlier work
[2] = obtained by our previous pharmacological experiment; cited from earlier work
[3] = test system: Bel-7402 (human hepatocellular carcinoma cells); parameters: method as in earlier work; conditions: Bel-7402 cell line; cited from earlier work
[4] = Brain homogenate, QC 1600 ng/mL
[5] = Heart homogenate, QC 1600 ng/mL
[6] = Intestine homogenate, QC 1 ng/mL
[7] = Intestine homogenate, QC 5 ng/mL
[8] = Intestine homogenate, QC 100 ng/mL
[9] = Intestine homogenate, QC 1600 ng/mL
[10] = Kidney homogenate, QC 100 ng/mL
[11] = Kidney homogenate, QC 1600 ng/mL
[12] = Liver homogenate, QC 1600 ng/mL
[13] = Spleen homogenate, QC 100 ng/mL
[14] = Spleen homogenate, QC 1600 ng/mL

## O=C(/C=C/C=C/c1ccccc1)CCc1ccccc1 [alnustone, Alnustone]
[1]; Brain homogenate, QC 1 ng/mL
  Stability: Autosampler 4 °C for 24 h: 109.2 ± 6.7
  Stability: Short-Term (at Room Temperature for 4 h): 110.6 ± 5.8
  Stability: Storage at −75°C for 30 d: 103.8 ± 4.1
  Stability: Three Freeze-Thraw Cycles: 86.5 ± 6.1
[1]; Brain homogenate, QC 5 ng/mL
  Stability: Autosampler 4 °C for 24 h: 104.9 ± 7.0
  Stability: Short-Term (at Room Temperature for 4 h): 109.0± 4.4
  Stability: Storage at −75°C for 30 d: 108.9 ± 3.8
  Stability: Three Freeze-Thraw Cycles: 89.2 ± 4.6
[1]; Brain homogenate, QC 100 ng/mL
  Stability: Autosampler 4 °C for 24 h: 95.4 ± 5.7
  Stability: Short-Term (at Room Temperature for 4 h): 99.3 ± 7.5
  Stability: Storage at −75°C for 30 d: 90.2 ± 7.4
  Stability: Three Freeze-Thraw Cycles: 98.0 ± 8.1
[1]; [4]
  Stability: Autosampler 4 °C for 24 h: 104.2 ± 4.9
  Stability: Short-Term (at Room Temperature for 4 h): 96.3 ± 7.4
  Stability: Storage at −75°C for 30 d: 112.3 ± 8.9
  Stability: Three Freeze-Thraw Cycles: 110.2 ± 6.8
[1]; Heart homogenate, QC 100 ng/mL
  Stability: Autosampler 4 °C for 24 h: 89.0 ± 3.4
  Stability: Storage at −75°C for 30 d: 112.4 ± 4.0
  Stability: Three Freeze-Thraw Cycles: 104.8 ± 6.6
[1]; [5]
  Stability: Autosampler 4 °C for 24 h: 90.3 ± 5.2
  Stability: Short-Term (at Room Temperature for 4 h): 91.8 ± 5.8
  Stability: Storage at −75°C for 30 d: 95.6 ± 5.4
  Stability: Three Freeze-Thraw Cycles: 95.3 ± 9.0
[1]; [6]
  Stability: Autosampler 4 °C for 24 h: 90.0 ± 5.7
  Stability: Short-Term (at Room Temperature for 4 h): 89.6 ± 8.1
  Stability: Storage at −75°C for 30 d: 96.5 ± 5.7
  Stability: Three Freeze-Thraw Cycles: 113.7 ± 8.7
[1]; [7]
  Stability: Autosampler 4 °C for 24 h: 90.9 ± 5.0
  Stability: Short-Term (at Room Temperature for 4 h): 95.8 ± 7.7
  Stability: Storage at −75°C for 30 d: 92.6 ± 3.7
  Stability: Three Freeze-Thraw Cycles: 108.7 ± 9.4
[1]; [8]
  Stability: Autosampler 4 °C for 24 h: 98.0 ± 4.9
  Stability: Short-Term (at Room Temperature for 4 h): 95.3 ± 6.7
  Stability: Storage at −75°C for 30 d: 114.4 ± 4.9
  Stability: Three Freeze-Thraw Cycles: 96.9 ± 3.8
[1]; [9]
  Stability: Autosampler 4 °C for 24 h: 103.0 ± 8.4
  Stability: Short-Term (at Room Temperature for 4 h): 105.9 ± 7.1
  Stability: Storage at −75°C for 30 d: 107.0 ± 4.3
  Stability: Three Freeze-Thraw Cycles: 113.6 ± 2.8
[1]; Kidney homogenate, QC 1 ng/mL
  Stability: Autosampler 4 °C for 24 h: 116.5 ± 8.0
  Stability: Short-Term (at Room Temperature for 4 h): 107.8 ± 7.5
  Stability: Storage at −75°C for 30 d: 89.8 ± 8.1
  Stability: Three Freeze-Thraw Cycles: 93.7 ± 7.0
[1]; Kidney homogenate, QC 5 ng/mL
  Stability: Autosampler 4 °C for 24 h: 114.1 ± 7.4
  Stability: Short-Term (at Room Temperature for 4 h): 110.7 ± 6.6
  Stability: Storage at −75°C for 30 d: 88.5 ± 6.4
  Stability: Three Freeze-Thraw Cycles: 95.7 ± 5.7
[1]; [10]
  Stability: Autosampler 4 °C for 24 h: 108.0 ± 5.7
  Stability: Short-Term (at Room Temperature for 4 h): 109.7 ± 8.3
  Stability: Storage at −75°C for 30 d: 111.0 ± 7.5
  Stability: Three Freeze-Thraw Cycles: 90.9 ± 7.0
[1]; [11]
  Stability: Autosampler 4 °C for 24 h: 95.9 ± 6.0
  Stability: Short-Term (at Room Temperature for 4 h): 100.7 ± 7.0
  Stability: Storage at −75°C for 30 d: 100.5 ± 10.6
  Stability: Three Freeze-Thraw Cycles: 112.5 ± 5.2
[1]; Liver homogenate, QC 1 ng/mL
  Stability: Autosampler 4 °C for 24 h: 93.1 ± 5.7
  Stability: Short-Term (at Room Temperature for 4 h): 98.8 ± 6.8
  Stability: Storage at −75°C for 30 d: 111.5 ± 6.9
  Stability: Three Freeze-Thraw Cycles: 101.5 ± 10.1
[1]; Liver homogenate, QC 5 ng/mL
  Stability: Autosampler 4 °C for 24 h: 95.3 ± 3.2
  Stability: Short-Term (at Room Temperature for 4 h): 95.4 ± 5.8
  Stability: Storage at −75°C for 30 d: 106.5 ± 10.1
  Stability: Three Freeze-Thraw Cycles: 98.8 ± 9.9
[1]; Liver homogenate, QC 100 ng/mL
  Stability: Autosampler 4 °C for 24 h: 101.3 ± 5.6
  Stability: Short-Term (at Room Temperature for 4 h): 111.0 ± 4.9
  Stability: Storage at −75°C for 30 d: 105.4 ± 7.2
  Stability: Three Freeze-Thraw Cycles: 108.4 ± 7.8
[1]; [12]
  Stability: Autosampler 4 °C for 24 h: 94.8 ± 7.7
  Stability: Short-Term (at Room Temperature for 4 h): 106.4 ± 6.0
  Stability: Storage at −75°C for 30 d: 97.7 ± 6.8
  Stability: Three Freeze-Thraw Cycles: 98.3 ± 6.3
[1]; Lung homogenate, QC 1 ng/mL
  Stability: Autosampler 4 °C for 24 h: 105.8 ± 7.0
  Stability: Short-Term (at Room Temperature for 4 h): 89.5 ± 7.6
  Stability: Storage at −75°C for 30 d: 103.4 ± 8.7
  Stability: Three Freeze-Thraw Cycles: 108.2 ± 9.5
[1]; Lung homogenate, QC 5 ng/mL
  Stability: Autosampler 4 °C for 24 h: 103.4 ± 7.1
  Stability: Short-Term (at Room Temperature for 4 h): 92.4 ± 6.4
  Stability: Storage at −75°C for 30 d: 93.0 ± 9.6
  Stability: Three Freeze-Thraw Cycles: 105.8 ± 8.7
[1]; Lung homogenate, QC 100 ng/mL
  Stability: Autosampler 4 °C for 24 h: 98.4 ± 5.4
  Stability: Short-Term (at Room Temperature for 4 h): 106.4 ± 8.6
  Stability: Storage at −75°C for 30 d: 101.0 ± 7.5
  Stability: Three Freeze-Thraw Cycles: 94.4 ± 2.6
[1]; Lung homogenate, QC 1600 ng/mL
  Stability: Autosampler 4 °C for 24 h: 100.6 ± 9.7
  Stability: Short-Term (at Room Temperature for 4 h): 91.2 ± 6.8
  Stability: Storage at −75°C for 30 d: 92.3 ± 6.3
  Stability: Three Freeze-Thraw Cycles: 93.8 ± 4.6
[1]; Spleen homogenate, QC 1 ng/mL
  Stability: Autosampler 4 °C for 24 h: 108.0 ± 6.0
  Stability: Short-Term (at Room Temperature for 4 h): 108.5± 6.4
  Stability: Storage at −75°C for 30 d: 102.3 ± 4.9
  Stability: Three Freeze-Thraw Cycles: 101.2 ± 7.4
[1]; Spleen homogenate, QC 5 ng/mL
  Stability: Autosampler 4 °C for 24 h: 101.8 ± 4.3
  Stability: Short-Term (at Room Temperature for 4 h): 114.7 ± 5.8
  Stability: Storage at −75°C for 30 d: 98.1 ± 3.9
  Stability: Three Freeze-Thraw Cycles: 106.2 ± 6.9
[1]; [13]
  Stability: Autosampler 4 °C for 24 h: 92.9 ± 6.5
  Stability: Short-Term (at Room Temperature for 4 h): 107.5 ± 8.9
  Stability: Storage at −75°C for 30 d: 114.3 ± 6.6
  Stability: Three Freeze-Thraw Cycles: 105.3 ± 3.1
[1]; [14]
  Stability: Autosampler 4 °C for 24 h: 102.1 ± 9.3
  Stability: Short-Term (at Room Temperature for 4 h): 104.4 ± 6.1
  Stability: Storage at −75°C for 30 d: 104.0 ± 3.2
  Stability: Three Freeze-Thraw Cycles: 92.9 ± 7.6
neuraminidase
  neuraminidase inhibitory activity: showed neuraminidase inhibitory activity
[2]
  LD50: 200 mg/kg
[3]
  antitumor activity in vitro: significant antitumor activity
